The values below come from US5869714A, “Salts of omega-3-polyunsaturated fatty acids and pharmaceutical formulations containing them” (Prospa B.V., priority 1994, dated 1999).

Data set [1] relates to arteriolar thrombus disaggregation. Nature of the data set: thrombolytic action: arteriolar thrombus disaggregation time after electrical vascular damage in the hamster. The format is in vivo, hamster (Mesocricetus auratus). The following applies: oral. The method, then:
Through a different in vivo experimental model also the effect on thrombus formation and disaggregation was evaluated in the hamster, following vascular damage induced by electrical stimulation (thrombolytic action).
(§1) In the course of a typical experiment, male hamsters of the Mesocricetus auratus genus, weighing 95-115 g, were acclimatized for 1 week in the laboratory before starting the study, then semi-chronically treated by oral route, for 10 consecutive days with the products under examination. More precisely, the animals were divided into 4 groups: group I received the vehicle alone, group II received DHA ethyl ester 100 mg/kg (equivalent to DHA 92 mg/kg), group III and IV were given DHA 50 mg/kg in the form of ethanolamine salt (59.3 mg/kg) and choline salt (65.7 mg/kg respectively).One hour following the last dose the animals were anaesthetized with sodium pentobarbitone (90 mg/kg, i.p.), the cheek pouch everted with a cotton wool bud and the upper layer and the underlying a vascular connective tissue removed with ophthalmic scissors to expose the lower vascular layer which was then bathed with saline solution and examined under a Leitz Dialux microscope (magnification×250).
For the evaluation of the thrombolytic activity a micropipette was filled with 1.0M potassium chloride, applied to an arteriole of diameter 40-60μ and connected to a reference electrode placed in the animal's mouth. A negative potential was applied for 5 seconds using a Grass S48 stimulator to produce a current of 20-30 μA. A second micropipette containing 10^-2 M ADP was applied to the site of electrical damage and a negative potential applied, for 3 seconds. After the current was switched off, the time taken for the resultant thrombus to form and to disaggregate (about 40 seconds) was recorded using a stopwatch. The process of ADP stimulation of the arteriole damaged site was repeated several times and the mean was recorded of the values obtained over one hour and compared with that of the control animals.
The percentage change in the persistence of the thrombus adhering to the damaged site in the treated and untreated animals is therefore an index of the thrombolytic activity of the drug (Table 3).

In data set [2] the test system is erythrocyte phospholipids. Nature of the data set: DHA content of erythrocyte phospholipids in healthy volunteers after 3 weeks oral treatment. The format is in vivo. To be noted: 1 g of DHA daily for 3 weeks. How it is done: Considering that the phospholipid class of the erythrocyte membrane, along with the degree of unsaturation of the acyl chains, does condition red cell deformability and blood viscosity, it has been conducted a study to ascertain the effect of the salts in question on erythrocyte phospholipid composition, which we describe hereunder in illustration. 8 healthy volunteers were then selected and divided into 4 groups which were treated by oral route for 3 weeks with a daily quantity of DHA 1.0 g in the form of ethyl ester (1.1 g), sodium salt (1.1 g), choline salt (1.3 g) and ethanolamine salt (1.2 g). Before and after treatment samples of venous blood were collected and sodium citrate added, then the erythrocytes were isolated, washed for 3 times with saline solution (0.15M NaCl, pH 7.4) at 0° and again suspended in saline solution. 1-ml samples from the red cell suspensions were treated with 5 ml of methanol for 10 minutes then with 5 ml of chloroform containing 2 mg/100 ml of the antioxidant 2,6-di-tert.butyl-4-methyl-phenol (BHT). The organic solvents originating from 3 extractions were evaporated to dryness and the residue, formed by the erythrocyte phospholipids, was subjected to bidimensional chromatography according to Turner J. D. and Rouser G., Anal. Biochem. (Part 1--Erythrocyte lipids), 38, 423, 1970 to separate the different phospholipid classes: silica gel 60H (90 g, Merck) plus Fluorisil (7.2 g, BDH Chemicals) plates were used; the solvent systems consisted of chloroform:methanol: 25% ammonia:water (90:54:5.5:5.5) and chloroform:methanol:acetone:acetic acid:water (60:20:80:20:10). The various classes were identified against standard phospolipids (Sigma Chemical). A sample of total phospholipids and the various stains isolated were treated with 1.5 ml of boron trifluoride-methanol for 1 h at 65° C. under nitrogen, to prepare the methyl esters of the acids contained in the phospholipids to undergo gas-chromatography. To this end a Hewlet-Packard 5890 gas-chromatograph was used, fitted with a ionisation flame detector and with an HPl column 25 m in length and 0.31 mm in int. diameter; elium was used as the carrier gas, the injection port temperature was 320° C. and the detector temperature 340° C. The chamber temperature was programmed at 170° C. for 1 min., then increased by 4°°C./min up to 250° C. and kept at this temperature for 15 minutes.

For data set [3], the system named is thrombus growth rate induced by ADP in the hamster microvascular system. Nature of the data set: in vivo antithrombotic action: growth rate of thrombus induced by ADP in hamster microvascular system. Details: species or system hamster (Mesocricetus auratus). The following applies: oral.
Excerpt: Considered however that this action is not fully indicative of the possible therapeutic effects of a drug, we measured the in vivo effect of the new salts in extremely significant tests, by determining for instance, their effect on growth rate of a thrombus induced by a known aggregatory agent (adenosine diphosphate; ADP) in the hamster microvascular system (in vivo antithrombotic action).
as §1
Evaluation of the antithrombotic activity requires measuring the growth rate of a thrombus (white body) in the microcirculation induced by the iontophoresis of ADP from a micropipette through the vessel wall. A micropipette of diameter 12μ was filled with 10^-2 M solution of ADP connected with a silver/silver chloride reference electrode placed in the animal's mouth and applied to a venule of diameter 16-40μ. By applying a negative potential to the micropipette, ADP (2×10^-14moles per second) was injected which caused the formation of a white body (platelet thrombus) gradually growing from the wall of the venule. The growth rate of the thrombus was determined by the time taken for 30%, 50% and 90% of the white body to form, 100% referring to total occlusion of the vessel with stasis. When the current was switched off, the white body rapidly embolised and no new white bodies formed until the current was re-applied. Inhibition of thrombus growth rate was calculated by comparing measurements in treated animals with those obtained in the control group (Table 2).

The nature of the next data set: water solubility. The format is physicochemical.
[4] abbreviates: maximum, equiv. to DHA 50 mg/kg × 10 days.

Structures can show the parent of a compound that is named as a salt.

For `CC/C=C\C/C=C\C/C=C\C/C=C\C/C=C\C/C=C\CCC(=O)O` [DHA ethanolamine salt], the “Percentage reduction, as compared to the controls, of arteriolar thrombus disaggregation time” value in data set [1] (60-70 minutes post-dose, equiv. to DHA 50 mg/kg × 10 days) is 30.3%; in data set [1] (70-80 minutes post-dose, equiv. to DHA 50 mg/kg × 10 days) it was 34.2%; in data set [1] (80-90 minutes post-dose, equiv. to DHA 50 mg/kg × 10 days), 34.5%; in data set [1] (90-100 minutes post-dose, equiv. to DHA 50 mg/kg × 10 days) it was 38.1%; in data set [1] (100-110 minutes post-dose, equiv. to DHA 50 mg/kg × 10 days), 30.4%; in data set [1] (110-120 minutes post-dose, equiv. to DHA 50 mg/kg × 10 days) it was 29.8%. Besides, the “reduction in disaggregation time” value in data set [1] (setting [4]) was 37-38%. In data set [1] (10 days), the “thrombolytic activity (in words)” value was “definitely more active, if given at the same doses”. In addition, the “Percent increase in DHA content of erythrocyte phospholipids as compared to baseline values: Phosphatidylcholine” value in data set [2] (phosphatidylcholine) is listed as 113%. For the same compound, in data set [2] (phosphatidylethanolamine), the “Percent increase in DHA content of erythrocyte phospholipids as compared to baseline values: Phosphatidylethanolamine” value amounted to 70%. In addition, in data set [2] (total phospholipids), the “Percent increase in DHA content of erythrocyte phospholipids as compared to baseline values: Total phospholipids” value worked out at 103%. Also, the “Percentage reduction, as compared to the controls, of thrombus growth rate induced by ADP” value in data set [3] (60 minutes post-dose, equiv. to DHA 50 mg/kg × 10 days) came to 16.5%; in data set [3] (70 minutes post-dose, equiv. to DHA 50 mg/kg × 10 days), 29.8%; in data set [3] (80 minutes post-dose, equiv. to DHA 50 mg/kg × 10 days) it was 32.2%; in data set [3] (90 minutes post-dose, equiv. to DHA 50 mg/kg × 10 days), 33.2%; in data set [3] (100 minutes post-dose, equiv. to DHA 50 mg/kg × 10 days), 26.6%; in data set [3] (110 minutes post-dose, equiv. to DHA 50 mg/kg × 10 days) it was 25.0%. In addition, the “Percentage reduction, as compared to the controls, of thrombus growth rate induced by ADP” value in data set [3] (120 minutes post-dose, equiv. to DHA 50 mg/kg × 10 days) turned out to be 22.3%. Also, the “percentage reduction in ADP-induced thrombus growth rate, of the order of max.” value in data set [3] (setting [4]) is 33-34%. Further, the “antithrombotic activity (in words)” value in data set [3] (10 days) is “highly active”. In “water solubility”, the water solubility entry was “totally water-soluble”.
